One data set deals with T1, Aβ 1-42 (Homo sapiens, UniProt P05067).
T1 construct: The reaction solutions contained Aβ 1-42 at concentrations
Nature of the data set: Assay 1 Fluorometric H2O2 assay (peroxide). Format: biochemical. As to conditions: inhibition of H2O2 generation by Aβ with copper. As for the experimental part: Assay 1. Fluorometric H2O2 Assay
A fluorometric assay was used to test the ability of a test compound to inhibit hydrogen peroxide generation by Aβ in the presence of copper based on dichlorofluoroscein diacetate (DCF; Molecular Probes, Eugene Oreg.). The DCF solution (5 mM) in 100% dimethyl sulphoxide (previously purged with argon for 1 hr at 20° C.) was deacetylated in the presence of 0.025M NaOH for 30 min and neutralised at pH 7.4 to a final concentration of 1 mM. Horseradish peroxidase (HRP) stock solution was prepared to 1 μM at pH 7.4. The reactions were carried out in PBS, pH 7.4 in a 96 well plate (total volume=250 μl/well). The reaction solutions contained Aβ 1-42 at concentrations in the range of 50 nM to 1 μM, copper-glycine chelate (Cu-Gly), was prepared by adding CuCl2 to glycine in the ratio of 1:6 and added to the Aβ in the proportion 2Cu-Gly:1Aβ), reducing agents including dopamine (5 μM) or ascorbic acid, deacetylated DCF 100 μM, and HRP, 0.1 μM. 1-10 μM EDTA or another chelator may also be present as a control for free copper, but was not required for the assay to function. The reaction mixture was incubated at 37 C for 60 min. Catalase (4000 units/ml) and H2O2 (1-2.5 μM) standards in PBS pH 7.4 may be included as positive controls. Fluorescence was recorded using a plate reader with excitation and emission filters at […] respectively. H2O2 concentration may be established by comparing fluorescence with the H2O2 standards. Inhibition of Aβ H2O2 production was assayed by including a given concentration of test compound(s) in the test wells.

Data set [1] in a line: Assay 3(d) test compound cytotoxicity (MTS). The data set is classed as cell-based. As to conditions: BL6Jx129sv, mouse, primary cortical neuronal cultures, cortical neurons; for viability at 4 days, 10 µM: read-out: Assay 3(d) Cytotoxicity (% viable at 10 uM); for viability at 4 days, 1 µM: read-out: Assay 3(d) Cytotoxicity (% viable at 1 uM). As for the experimental part:
(§1) Primary Cortical Neuronal Cultures
(§2) Cortical cultures were prepared as previously described (White et al., 1998). Embryonic day 14 BL6Jx129sv mouse cortices were removed, dissected free of meninges and dissociated in 0.025% (wt/vol) trypsin. Dissociated cells were plated in 48 well culture plates at a density of 2×10^6 cells/mL in MEM with 25% (vol/vol) FCS and 5% (vol/vol) HS and incubated at 37° C., 2 hrs. Media was then replaced with Neurobasal media (Invitrogen Life Technologies) and B27 supplements (Invitrogen Life Technologies). Cultures were maintained at 37° C. in 5% CO2. Prior to experimentation, the culture medium was replaced with Neurobasal media and B27 minus antioxidants (Invitrogen Life Technologies).
(a) MTS Assay for Cell Viability
Cell viability is determined using the MTS assay. Culture medium is replaced with fresh neurobasal medium plus B27 supplements minus antioxidants. 1/10 volume MTS solution (Cell Titre 96 Aqueous One, Promega Corporation) and incubated at 37° C., 2 hrs. 200 microlitre aliquots are measured with a spectrophotometer at 560 nm.
(d) Assay for Test Compound Cytoxicity
Neuronal cortical cells were cultured for five days as per Assay 2 in NB media and B27 supplement.
On day six the test compounds were added to the neuronal cell cultures in NB media and B27 supplement minus antioxidants.
Test compounds were dissolved in 100% DMSO to a concentration of 2.5 mM (10 mM if excess compound was weighed out per vial—then diluted to 2.5 mM). 2.5 mM stock solution was serially diluted 1 in 10 to give working solutions of 250 uM, 25 uM, 2.5 uM. Test compounds were not added directly to cells, instead they were added to a 48 well ‘Drug Plate’ as comprised below:
(§3) Preparation of “Drug Plate”:
• Well 1: 576 ul NB+B27 (no antioxidant)*+24 ul 2.5 uM test compound • Well 2: 576 ul NB+B27 (no antioxidant)+24 ul 25 uM test compound • Well 3: 576 ul NB+B27 (no antioxidant)+24 ul 250 uM test compound • Well 4: 576 ul NB+B27 (no antioxidant)+24 ul 2.5 uM test compound • Well 5: 576 ul NB+B27 (no antioxidant)+24 ul 25 uM test compound • Well 6: 576 ul NB+B27 (no antioxidant)+24 ul 250 uM test compound • Well 7: 576 ul NB+B27 (no antioxidant)+24 ul test compound diluent** • Well 8: 600 ul NB+B27 (no antioxidant)
The Drug Plate was incubated at 37° C. for 15 mins. 200 ul of each well was added in triplicate to the corresponding cell plate. The cell plate was incubated at 37° C., for 4 days, (2 compounds are tested on each plate of cells).
* NB media and B27 (no antioxidants),
** PBT diluent 10% DMSO in NB+B27 (no antioxidants)
On completion of the assay, 1/10 volume MTS was added per well of plate (ie 25 ul/250 ul). The plates were incubated at 37° C. for 2 hrs, and then absorbance was read at 560 nm.

The test system of data set [2] is Aβ1-42 toxicity in neuronal cortical cells. Nature of the data set: Assay 3(c) Aβ neurotoxicity and neuroprotection (MTS). As to conditions: 20 uM Aβ1-42, cortical neurons, 4 days. Format: cell-based, mouse. As for the experimental part:
as §1, §2
(c) Assay for Aβ Neurotoxicity and Aβ Neuroprotection
Neuronal cortical cells were cultured for five days as per Assay 2. On day six the neurobasal (NB) media (Invitrogen Life Technologies) and B27 supplement (Invitrogen Life Technologies) were replaced with NB media and B27 supplement (no antioxidants). On day six, test compounds were individually added to the neuronal cell cultures:
The test compounds were dissolved in 100% DMSO to a concentration of 2.5 mM (10 mM if excess compound was weighed out per vial—then diluted to 2.5 mM). 2.5 mM stock solution was serially diluted 1 in 10 to give working solutions of 250 uM, 25 uM, 2.5 uM.
Aβ was initially dissolved in 20 mM NaOH to a concentration of 1 mM and sonicated for 5 minutes. The peptide was then diluted in H2O and 10×PBS to a final concentration of 200 uM Aβ in 1× PBS. The peptide was again sonicated for 5 minutes and then spun at 14000 rpm for 5 min and transferred to a fresh tube.
The test compounds were dissolved in 100% DMSO to a concentration of 2.5 mM (10 mM if excess compound was weighed out per vial—then diluted to 2.5 mM). 2.5 mM stock solution was serially diluted 1 in 10 [in NB media and B27 (no antioxidants)] to give working solutions of 250 uM, 25 uM, 2.5 uM. Test compounds were not added directly to cells, instead they were added to a 48 well ‘Drug Plate’ as comprised below:
as §3
Well 1: 515 ul NB+B27 (no antioxidant)*+24 ul 25 uM test compound+60 ul Aβ diluent**
Well 2: 515 ul NB+B27 (no antioxidant)+24 ul 250 uM test compound+60 ul Aβ diluent
Well 3: 515 ul NB+B27 (no antioxidant)+24 ul test compound diluent***+60 ul Aβ1-42
Well 4: 515 ul NB+B27 (no antioxidant)+24 ul 2.5 uM test compound+60 ul Aβ1-42
Well 5: 515 ul NB+B27 (no antioxidant)+24 ul 25 uM test compound+60 ul Aβ1-42
Well 6: 515 ul NB+B27 (no antioxidant)+24 ul 250 uM test compound+60 ul Aβ1-42 diluent
Well 7: 515 ul NB+B27 (no antioxidant)+24 ul test compound diluent+60 ul Aβ1-42 diluent
Well 8: 600 ul NB+B27 (no antioxidant)
The Drug Plate was incubated at 37° C. for 15 mins. 200 ul of each well was added in triplicate to the corresponding cell plate. The cell plate was incubated at 37 C, for 4 days.
* NB media+B27 (no antioxidants)
** Aβ diluent 2 mM NaOH, 1×PBS
*** PBT diluent 10% DMSO in NB+B27 (no antioxidant)
On the 4th day after treating the cells the assay is completed by adding MTS to the cells.

A short description of data set [3]: Assay 16 mouse plasma levels of test compounds. As to conditions: highest level found in mice (Up to); oral dosing 30 mg/kg described for PB 1075-1077. The data set is classed as in vivo. As to the method: Assay 16. Determination of Mouse Plasma Levels of Test Compounds PB 1075
Oral administration of PB 1075 at 30 mg/kg, as a suspension in Na-Carboxymethyl Cellulose (CMC) was administered by oral gavage to four mice. Two mice were sacrificed 30 minutes after administration and two mice were sacrificed 60 minutes after administration. Blood was obtained by cardiac puncture and plasma separated by centrifugation.
The concentration of PB 1075 was determined by LC/MS using the triple quadrupole instrument. The mobile phase consisted of an acetonitrile (ACN)/water gradient (containing 0.05% Formic acid) and the column was a Phenomenex Lunea 5 um C8 (50×2 mm) column.
The supplied acute toxicity mouse plasma samples were directly injected following a protein precipitation with ACN. The analytical method in plasma was linear in the range of 10 to 10,000 ng/ml (R^2=0.994). Recovery of PB 1075 from plasma was ˜100%.
Oral administration of PB 1076 at 30 mg/kg, as a suspension in Na-Carboxymethyl Cellulose (CMC) was administered by oral gavage to four mice. Two mice were sacrificed 30 minutes after administration and two mice were sacrificed 60 minutes after administration. Blood was obtained by cardiac puncture and plasma separated by centrifugation.
The concentration of PB 1076 was determined by LC/MS using the triple quadrupole instrument. The mobile phase consisted of an acetonitrile (ACN)/water gradient (containing 0.05% Formic acid) and the column was a Phenomenex Luna 5 μM C8 (50×2 mm) column.
The mouse plasma samples were directly injected following a protein precipitation with ACN. The analytical method in plasma was linear in the range of 500 to 10,000 ng/ml (R^2=0.999). Recovery of PB 1076 from plasma was ˜85%.
Oral administration of PB 1077 at 30 mg/kg, as a suspension in Na-Carboxymethyl Cellulose (CMC) was administered by oral gavage to four mice. Two mice were sacrificed 30 minutes after administration and two mice were sacrificed 60 minutes after administration. Blood was obtained by cardiac puncture and plasma separated by centrifugation.
The concentration of PB 1077 was determined by LC/MS using the triple quadrupole instrument. The mobile phase consisted of an acetonitrile (ACN)/water gradient (containing 0.05% Formic acid) and the column was a Phenomenex Luna 5 μM C8 (50×2 mm) column.
The mouse plasma samples were directly injected following a protein precipitation with ACN. The analytical method in plasma was linear in the range of 5 to 5,000 ng/ml (R^2=0.999). Recovery of PB 1077 from plasma was ˜92%.

This note sets out measurements from US8084459B2, “Substituted quinazolinones for treating neurological conditions” (Prana Biotechnology Ltd, priority 2004, dated 2011).

Each structure is given as a SMILES string.

T1 sequence (P05067 672-713 limits assumed): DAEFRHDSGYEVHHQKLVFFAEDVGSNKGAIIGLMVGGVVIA

For the compound `O=c1c2c(Cl)cc(Cl)c(O)c2ncn1N1CCOCC1` [Compound 1080], at Aβ 1-42, the concentration for half-maximal inhibition (IC50) (in general, the point on the concentration scale where inhibition reaches its midpoint) was found to be 440 nM. In addition, in data set [1], the viability at 4 days, 10 µM was found to be 70%. Also, the “Assay 3(c) Neuroprotection (% inhibition of Abeta toxicity)” value in data set [2] is 15%.
Take `CN1CCN(n2cnc3c(O)c(Cl)cc(Cl)c3c2=O)CC1` [Compound 1081]: half-maximal inhibition at Aβ 1-42 (IC50) required 550 nM. Moreover, the “Assay 3(c) Neuroprotection (% inhibition of Abeta toxicity)” value in data set [2] is on record as 7%. Further, the “Assay 16 Mice plasma concentration” value in data set [3] is “Up to 207 ng/mL”.
At Aβ 1-42, `O=c1c2c(Cl)cc(Cl)c(O)c2ncn1-c1ccc(Cl)cn1` [Compound 1087] yielded an IC50 of 1520 nM. In addition, in data set [1], the viability at 4 days, 1 µM was determined as 94% and the viability at 4 days, 10 µM worked out at 58%. In addition, the “Assay 3(c) Neuroprotection (% inhibition of Abeta toxicity)” value in data set [2] came to 11%.
`CCn1nccc1-n1cnc2c(O)c(Cl)cc(Cl)c2c1=O` [Compound 1088]: 840 nM corresponded to half-maximal inhibition against Aβ 1-42 (IC50). The viability at 4 days, 10 µM in data set [1] amounted to 94%. The “Assay 3(c) Neuroprotection (% inhibition of Abeta toxicity)” value in data set [2] worked out at 3%.
In turn, `Cc1ccc(-n2cnc3c(O)c(Cl)cc(Cl)c3c2=O)nc1` [Compound 1089] registered an IC50 at Aβ 1-42 of 780 nM. Also, in data set [1], the viability at 4 days, 1 µM is 96% and the viability at 4 days, 10 µM was 83%. In data set [2], the “Assay 3(c) Neuroprotection (% inhibition of Abeta toxicity)” value turned out to be 13%.
For `O=c1c2c(Cl)cc(Cl)c(O)c2ncn1CCc1ccccn1` [Compound 1091] the same measures were 460 nM, 100%, 92% and −8%.
Consider `O=c1c2c(Cl)cc(Cl)c(O)c2ncn1CC1CCNCC1` [Compound 1094], for which, in data set [1], the viability at 4 days, 1 µM came to 97% and the viability at 4 days, 10 µM was 96%. Also, the “Assay 3(c) Neuroprotection (% inhibition of Abeta toxicity)” value in data set [2] is recorded as 1%.
